Source: ChEMBL document CHEMBL1201862, “PubChem BioAssay data set” (2004)
Activity calls are given as the source filed them.

What was measured:
[1] = target: Large T antigen (Simian virus 40, UniProt P03070); type: functional, Betapolyomavirus macacae;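 also: Confirmatory-stage PubChem screen for compounds that inhibit SV40 T antigen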
[2] = test system: HeLa; assay: HeLa cell cytotoxicity, dose response, cytotoxicity control, 24 h, cherry-picked samples (AID 504726); type: functional, cell-based; details: Homo sapiens;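 also: potency for cytotoxicity as loss of luminescence signal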
[3] = target: T1, ORF 73 (Human herpesvirus 8, UniProt O40947); assay: inhibitors of C-LANA binding to LBS DNA, dose response, biochemical, fluorescence polarization, cherry-picked samples (AID 504725); parameters: species or system Human gammaherpesvirus 8;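 also: fluorescence polarization of a labeled DNA duplex reporting LANA DNA binding; potency is for inhibitors that block LANA binding to the DNA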
T1 sequence (O40947 whole entry): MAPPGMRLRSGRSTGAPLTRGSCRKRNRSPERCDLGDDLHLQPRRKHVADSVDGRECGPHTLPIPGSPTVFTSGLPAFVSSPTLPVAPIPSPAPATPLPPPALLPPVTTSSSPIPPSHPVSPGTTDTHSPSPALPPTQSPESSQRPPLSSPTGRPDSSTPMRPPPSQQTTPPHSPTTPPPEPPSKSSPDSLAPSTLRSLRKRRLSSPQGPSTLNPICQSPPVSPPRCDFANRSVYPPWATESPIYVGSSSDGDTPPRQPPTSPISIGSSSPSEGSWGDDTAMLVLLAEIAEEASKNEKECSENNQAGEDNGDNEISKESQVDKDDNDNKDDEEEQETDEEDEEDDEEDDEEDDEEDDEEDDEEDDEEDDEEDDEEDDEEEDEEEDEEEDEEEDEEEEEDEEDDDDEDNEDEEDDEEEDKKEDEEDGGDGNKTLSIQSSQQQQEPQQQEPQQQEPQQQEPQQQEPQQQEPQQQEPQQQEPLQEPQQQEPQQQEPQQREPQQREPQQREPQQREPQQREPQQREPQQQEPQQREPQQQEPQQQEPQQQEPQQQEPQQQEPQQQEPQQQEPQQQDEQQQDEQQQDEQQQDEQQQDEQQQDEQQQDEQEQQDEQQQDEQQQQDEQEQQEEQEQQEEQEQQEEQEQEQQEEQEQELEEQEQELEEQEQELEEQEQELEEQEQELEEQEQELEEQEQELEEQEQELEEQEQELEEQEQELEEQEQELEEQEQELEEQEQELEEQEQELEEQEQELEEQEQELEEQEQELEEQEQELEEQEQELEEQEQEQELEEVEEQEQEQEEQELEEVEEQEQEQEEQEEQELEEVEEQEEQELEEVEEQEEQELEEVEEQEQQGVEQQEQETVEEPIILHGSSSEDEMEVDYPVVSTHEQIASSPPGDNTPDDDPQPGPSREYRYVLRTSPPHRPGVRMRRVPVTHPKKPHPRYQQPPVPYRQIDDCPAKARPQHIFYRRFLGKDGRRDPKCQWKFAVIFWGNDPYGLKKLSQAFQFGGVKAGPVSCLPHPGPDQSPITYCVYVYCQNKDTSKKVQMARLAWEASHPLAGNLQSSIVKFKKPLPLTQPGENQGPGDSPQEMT

[4] = target: T2, Intestinal-type alkaline phosphatase (Homo sapiens, UniProt P09923); assay: activation of human intestinal alkaline phosphatase – biochemical, dose response (AID 488873); type: functional
[5] = target: T3, Intestinal-type alkaline phosphatase (Mus musculus, UniProt P24822); assay: PubChem AID 488785; type: functional
[6] = target: T4, Alkaline phosphatase, tissue-nonspecific isozyme (Homo sapiens, UniProt P05186); assay: TNAP enzyme activators, dose response, selectivity assay for mouse IAP activator project, biochemical, TNAP isozyme, mouse IAP uHTS hits (AID 488880); type: functional
T4 sequence (P05186 whole entry): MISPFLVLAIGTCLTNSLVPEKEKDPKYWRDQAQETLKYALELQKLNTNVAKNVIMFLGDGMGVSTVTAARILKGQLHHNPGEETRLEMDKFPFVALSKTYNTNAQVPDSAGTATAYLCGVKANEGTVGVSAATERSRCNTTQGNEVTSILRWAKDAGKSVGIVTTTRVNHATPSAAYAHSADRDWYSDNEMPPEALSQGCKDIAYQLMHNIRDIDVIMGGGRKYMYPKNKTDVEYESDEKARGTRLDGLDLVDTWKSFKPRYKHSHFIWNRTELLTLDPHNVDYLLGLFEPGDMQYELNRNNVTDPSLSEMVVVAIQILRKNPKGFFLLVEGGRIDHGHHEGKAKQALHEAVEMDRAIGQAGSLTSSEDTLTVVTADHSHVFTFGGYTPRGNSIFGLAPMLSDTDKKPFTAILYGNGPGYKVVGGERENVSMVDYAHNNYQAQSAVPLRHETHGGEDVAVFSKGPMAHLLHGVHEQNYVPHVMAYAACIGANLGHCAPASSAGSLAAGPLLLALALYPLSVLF

[7] = target: SUMO E1/E2 (Homo sapiens, UniProt P63279+Q9UBE0+Q9UBT2); assay: SAR analysis of SUMOylation using HTRF in an in-Vitro dose response assay. [Related pubchem assays (depositor defined):AID2006, AID2011, AID2018, AID2069, AID2658]; type: functional
[8] = target: T5, Tyrosine-protein phosphatase non-receptor type 22 (Homo sapiens, UniProt Q9Y2R2); assay: SAR LYP1 Fluorescent Assay using pCAP substrate for In Vitro dose response studies - Set 2. [Related pubchem assays (depositor defined):AID1779, AID1784, AID2135, AID449727]; type: functional
T5 sequence (Q9Y2R2 whole entry): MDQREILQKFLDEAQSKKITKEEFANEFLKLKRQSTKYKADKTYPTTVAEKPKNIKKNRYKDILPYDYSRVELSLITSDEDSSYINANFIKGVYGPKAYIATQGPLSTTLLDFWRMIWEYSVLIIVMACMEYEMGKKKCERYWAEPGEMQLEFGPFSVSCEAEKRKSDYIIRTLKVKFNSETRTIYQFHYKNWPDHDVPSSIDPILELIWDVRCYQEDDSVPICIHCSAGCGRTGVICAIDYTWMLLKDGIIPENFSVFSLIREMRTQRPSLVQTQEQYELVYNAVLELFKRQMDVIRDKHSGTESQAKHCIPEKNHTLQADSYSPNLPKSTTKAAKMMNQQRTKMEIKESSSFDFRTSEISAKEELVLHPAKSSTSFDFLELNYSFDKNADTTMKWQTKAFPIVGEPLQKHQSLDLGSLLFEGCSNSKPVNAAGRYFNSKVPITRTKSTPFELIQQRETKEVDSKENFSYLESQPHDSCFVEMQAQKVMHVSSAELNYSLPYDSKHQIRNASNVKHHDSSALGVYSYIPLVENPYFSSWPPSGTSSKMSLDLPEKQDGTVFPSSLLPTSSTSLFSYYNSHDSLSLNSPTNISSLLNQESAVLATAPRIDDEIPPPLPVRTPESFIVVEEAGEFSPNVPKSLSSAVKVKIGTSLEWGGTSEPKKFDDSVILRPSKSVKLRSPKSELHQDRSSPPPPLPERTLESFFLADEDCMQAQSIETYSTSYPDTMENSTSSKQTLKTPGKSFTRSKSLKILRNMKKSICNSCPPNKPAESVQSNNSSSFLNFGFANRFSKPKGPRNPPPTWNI

[9] = target: Tyrosine-protein phosphatase non-receptor type 12 (Homo sapiens, UniProt Q05209); assay: SAR Selectivity Analysis of small molecule inhibitors of PEST using pCAP in a fluorescence assay. [Related pubchem assays (depositor defined):AID1779, AID1784, AID2135]; type: functional
[10] = target: T5, Tyrosine-protein phosphatase non-receptor type 22; assay: SAR LYP1 Fluorescent Assay using OMFP substrate for In Vitro dose response studies - Set 3. [Related pubchem assays (depositor defined):AID1779, AID1784, AID2140, AID2686]; type: functional
[11] = target: T6, Tyrosine-protein phosphatase non-receptor type 7 (Homo sapiens, UniProt P35236); assay: HePTP (PTPN7) phosphatase inhibitor potency, SAR follow-up, biochemical, set 2 (AID 449736); type: functional
T6 sequence (P35236 whole entry): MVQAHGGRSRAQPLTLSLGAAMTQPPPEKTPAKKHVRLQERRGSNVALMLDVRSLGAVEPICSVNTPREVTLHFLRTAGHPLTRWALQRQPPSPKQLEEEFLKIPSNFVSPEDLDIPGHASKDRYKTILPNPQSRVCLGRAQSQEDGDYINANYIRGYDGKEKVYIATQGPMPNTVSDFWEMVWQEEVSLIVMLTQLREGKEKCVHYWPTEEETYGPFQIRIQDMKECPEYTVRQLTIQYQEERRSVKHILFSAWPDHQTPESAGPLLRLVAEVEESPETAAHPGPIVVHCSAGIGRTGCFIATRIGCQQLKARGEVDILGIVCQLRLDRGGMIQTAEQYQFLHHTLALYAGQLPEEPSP

[12] = target: T5, Tyrosine-protein phosphatase non-receptor type 22; assay: LYP (PTPN22) phosphatase inhibitor potency, SAR follow-up, biochemical, pCAP fluorogenic substrate, fluorescence, set 3 (AID 449727); type: functional
[13] = target: T5, Tyrosine-protein phosphatase non-receptor type 22; assay: SAR LYP1 Fluorescent Assay using OMFP substrate for In Vitro dose response studies - Set 2. [Related pubchem assays (depositor defined):AID1779, AID1784, AID2140, AID449726, AID488869]; type: functional
[14] = target: T3, Intestinal-type alkaline phosphatase; assay: PubChem AID 488874; type: functional
[15] = target: T2, Intestinal-type alkaline phosphatase; assay: human intestinal alkaline phosphatase activators, dose response, biochemical, luminescence, uHTS hits (AID 463120); type: functional
[16] = target: T2, Intestinal-type alkaline phosphatase; assay: human IAP activators, dose response, biochemical, luminescent, uHTS hits, set 2 (AID 488817); type: functional;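 also: potency of activators that raise enzyme activity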
[17] = target: T4, Alkaline phosphatase, tissue-nonspecific isozyme; assay: TNAP enzyme activators, dose response, selectivity assay for human IAP activator project, biochemical, TNAP isozyme, human IAP uHTS hits (AID 488886); type: functional;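 also: potency of compounds raising TNAP activity as a selectivity check on IAP activators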
[18] = target: T6, Tyrosine-protein phosphatase non-receptor type 7; type: functional
[19] = inhibitors of intracellular T. cruzi replication, confirmation, NIH3T3 host cells, beta-gal luminescence (AID 2044); type: functional, cell-based;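 also: intracellular parasites grown in NIH/3T3 mouse fibroblasts as host cells; luminescent beta-galactosidase reporter signal from transgenic T. cruzi replicating inside host cells; inhibitors lower the luminescence signal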
[20] = cytotoxicity toward NIH3T3 fibroblasts, dose response, counter-screen, cell-based, ATP luminescence, mouse fibroblasts (AID 2010); type: functional;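 also: cells exposed to compound for about 90 hours before reading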
[21] = target: T5, Tyrosine-protein phosphatase non-receptor type 22; type: functional
[22] = target: T5, Tyrosine-protein phosphatase non-receptor type 22; type: functional; remark: listed apart in the source
[23] = target: T7, Delta-type opioid receptor (Homo sapiens, UniProt P41143); assay: HTS Image-Based Screen for Antagonists of the DOR Receptor. [Related pubchem assays (depositor defined):AID1777, AID1785, AID1786, AID2133]; type: functional
[24] = target: Mu-type opioid receptor (Homo sapiens, UniProt P35372); assay: HTS Image-Based Screen for Agonists of the MOR Receptor. [Related pubchem assays (depositor defined):AID1777, AID1785, AID1786, AID2133]; type: functional;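 also: imaging of beta-arrestin GFP recruitment into spots after receptor activation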
[25] = target: T7, Delta-type opioid receptor; assay: HTS Image-Based Screen for Agonists of the DOR Receptor. [Related pubchem assays (depositor defined):AID1777, AID1786, AID2133]; type: functional
[26] = target: T8, Kappa-type opioid receptor (Homo sapiens, UniProt P41145); type: functional
[27] = target: Beta-galactosidase (Escherichia coli, UniProt Q8VNN2); type: functional
[28] = target: T8, Kappa-type opioid receptor; type: functional; remark: listed apart in the source
[29] = target: T4, Alkaline phosphatase, tissue-nonspecific isozyme; assay: TNAP enzyme inhibition by screening hits, dose response, selectivity assay for mouse IAP inhibitor project, biochemical, human TNAP, uHTS hits (AID 488906); type: functional
[30] = target: T2, Intestinal-type alkaline phosphatase; assay: inhibition of human intestinal alkaline phosphatase – biochemical, dose response (AID 488876); type: functional
[31] = target: Lysine-specific demethylase 4A (Homo sapiens, UniProt O75164); assay: JMJD2A histone demethylase inhibitors, dose response, selectivity assay for GASC-1 inhibitor project, biochemical, DELFIA europium, cherry-picked samples (AID 488840)
[32] = target: Lysine-specific demethylase 4C (Homo sapiens, UniProt Q9H3R0); assay: GASC-1 (JMJD2C) histone demethylase inhibitors, dose response, biochemical, DELFIA europium, cherry-picked samples (AID 488835); type: functional
[33] = target: T9, Sentrin-specific protease 8 (Homo sapiens, UniProt Q96LD8); type: functional
T9 sequence (Q96LD8 whole entry): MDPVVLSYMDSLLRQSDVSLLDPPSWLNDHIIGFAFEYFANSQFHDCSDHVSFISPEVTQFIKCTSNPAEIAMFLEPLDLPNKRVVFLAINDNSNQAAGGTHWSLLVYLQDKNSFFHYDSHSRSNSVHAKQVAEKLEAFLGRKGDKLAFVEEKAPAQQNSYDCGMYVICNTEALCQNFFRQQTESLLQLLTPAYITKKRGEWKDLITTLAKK

[34] = target: T9, Sentrin-specific protease 8; type: functional; remark: listed apart in the source

T2 sequence (P09923 whole entry): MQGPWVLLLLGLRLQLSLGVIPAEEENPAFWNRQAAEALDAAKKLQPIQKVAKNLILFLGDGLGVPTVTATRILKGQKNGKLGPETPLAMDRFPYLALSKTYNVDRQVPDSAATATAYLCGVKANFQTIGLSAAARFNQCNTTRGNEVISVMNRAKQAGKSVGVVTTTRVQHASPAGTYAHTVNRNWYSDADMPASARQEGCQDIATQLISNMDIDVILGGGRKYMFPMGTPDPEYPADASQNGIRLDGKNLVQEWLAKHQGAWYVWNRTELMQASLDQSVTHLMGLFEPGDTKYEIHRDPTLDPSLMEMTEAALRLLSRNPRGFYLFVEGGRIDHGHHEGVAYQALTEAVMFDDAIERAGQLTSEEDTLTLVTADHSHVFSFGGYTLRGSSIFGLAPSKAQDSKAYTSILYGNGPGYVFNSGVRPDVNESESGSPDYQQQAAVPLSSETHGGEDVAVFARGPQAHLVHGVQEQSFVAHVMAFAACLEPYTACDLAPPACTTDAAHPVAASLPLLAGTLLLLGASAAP
T3 sequence (P24822 whole entry): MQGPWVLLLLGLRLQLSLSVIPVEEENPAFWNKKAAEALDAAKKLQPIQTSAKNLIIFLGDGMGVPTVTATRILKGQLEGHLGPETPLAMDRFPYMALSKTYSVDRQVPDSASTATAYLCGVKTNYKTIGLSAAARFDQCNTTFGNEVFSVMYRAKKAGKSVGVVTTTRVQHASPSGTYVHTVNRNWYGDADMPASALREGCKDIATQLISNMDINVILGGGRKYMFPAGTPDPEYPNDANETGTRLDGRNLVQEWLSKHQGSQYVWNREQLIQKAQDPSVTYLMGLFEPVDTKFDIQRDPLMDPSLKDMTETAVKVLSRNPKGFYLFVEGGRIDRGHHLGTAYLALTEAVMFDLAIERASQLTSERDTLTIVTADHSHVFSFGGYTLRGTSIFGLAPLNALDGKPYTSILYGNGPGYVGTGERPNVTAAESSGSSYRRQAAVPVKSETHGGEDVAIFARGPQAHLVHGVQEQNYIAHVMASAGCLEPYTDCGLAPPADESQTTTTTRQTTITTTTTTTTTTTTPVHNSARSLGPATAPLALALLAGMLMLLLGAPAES
T8 sequence (P41145 whole entry): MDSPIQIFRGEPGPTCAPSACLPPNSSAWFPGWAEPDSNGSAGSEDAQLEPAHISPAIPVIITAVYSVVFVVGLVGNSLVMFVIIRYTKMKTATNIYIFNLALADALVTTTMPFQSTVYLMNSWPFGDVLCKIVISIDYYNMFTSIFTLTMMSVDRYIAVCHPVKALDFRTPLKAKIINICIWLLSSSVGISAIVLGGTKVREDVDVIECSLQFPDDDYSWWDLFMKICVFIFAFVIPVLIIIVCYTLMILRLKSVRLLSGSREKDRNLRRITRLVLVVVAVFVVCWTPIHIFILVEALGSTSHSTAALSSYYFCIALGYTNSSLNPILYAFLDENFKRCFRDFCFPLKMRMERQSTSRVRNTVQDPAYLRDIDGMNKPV
T7 sequence (P41143 whole entry): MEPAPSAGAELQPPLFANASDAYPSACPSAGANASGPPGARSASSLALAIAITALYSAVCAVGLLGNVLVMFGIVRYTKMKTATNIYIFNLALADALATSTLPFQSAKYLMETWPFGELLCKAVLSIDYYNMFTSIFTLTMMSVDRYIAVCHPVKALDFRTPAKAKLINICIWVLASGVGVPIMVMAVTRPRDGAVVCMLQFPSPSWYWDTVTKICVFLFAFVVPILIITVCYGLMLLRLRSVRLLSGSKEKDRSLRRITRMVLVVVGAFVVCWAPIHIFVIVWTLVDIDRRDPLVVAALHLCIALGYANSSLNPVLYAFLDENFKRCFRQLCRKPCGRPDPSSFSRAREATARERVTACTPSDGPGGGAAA
Chain of Mu-type opioid receptor (P35372 whole entry): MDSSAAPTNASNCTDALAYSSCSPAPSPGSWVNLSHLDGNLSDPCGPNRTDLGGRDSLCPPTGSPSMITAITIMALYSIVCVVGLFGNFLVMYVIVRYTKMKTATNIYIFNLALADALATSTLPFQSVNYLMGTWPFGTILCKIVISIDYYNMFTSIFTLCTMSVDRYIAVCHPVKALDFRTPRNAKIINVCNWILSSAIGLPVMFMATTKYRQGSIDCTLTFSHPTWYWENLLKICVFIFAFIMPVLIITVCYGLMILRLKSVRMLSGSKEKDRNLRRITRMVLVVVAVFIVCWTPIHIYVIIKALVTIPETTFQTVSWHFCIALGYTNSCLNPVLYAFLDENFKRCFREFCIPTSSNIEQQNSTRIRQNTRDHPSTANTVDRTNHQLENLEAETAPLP
Chain of SUMO E1/E2 (Q9UBE0 whole entry): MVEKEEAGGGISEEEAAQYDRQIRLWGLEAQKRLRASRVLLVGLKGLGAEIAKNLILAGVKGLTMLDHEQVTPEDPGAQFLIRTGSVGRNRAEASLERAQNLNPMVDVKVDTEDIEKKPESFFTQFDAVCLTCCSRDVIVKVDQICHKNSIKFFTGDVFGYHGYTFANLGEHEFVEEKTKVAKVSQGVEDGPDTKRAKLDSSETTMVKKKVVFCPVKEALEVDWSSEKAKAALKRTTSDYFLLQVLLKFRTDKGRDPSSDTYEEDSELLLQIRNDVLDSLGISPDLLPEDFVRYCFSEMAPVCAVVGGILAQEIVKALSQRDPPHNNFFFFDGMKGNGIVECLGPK
Chain of SUMO E1/E2 (Q9UBT2 whole entry): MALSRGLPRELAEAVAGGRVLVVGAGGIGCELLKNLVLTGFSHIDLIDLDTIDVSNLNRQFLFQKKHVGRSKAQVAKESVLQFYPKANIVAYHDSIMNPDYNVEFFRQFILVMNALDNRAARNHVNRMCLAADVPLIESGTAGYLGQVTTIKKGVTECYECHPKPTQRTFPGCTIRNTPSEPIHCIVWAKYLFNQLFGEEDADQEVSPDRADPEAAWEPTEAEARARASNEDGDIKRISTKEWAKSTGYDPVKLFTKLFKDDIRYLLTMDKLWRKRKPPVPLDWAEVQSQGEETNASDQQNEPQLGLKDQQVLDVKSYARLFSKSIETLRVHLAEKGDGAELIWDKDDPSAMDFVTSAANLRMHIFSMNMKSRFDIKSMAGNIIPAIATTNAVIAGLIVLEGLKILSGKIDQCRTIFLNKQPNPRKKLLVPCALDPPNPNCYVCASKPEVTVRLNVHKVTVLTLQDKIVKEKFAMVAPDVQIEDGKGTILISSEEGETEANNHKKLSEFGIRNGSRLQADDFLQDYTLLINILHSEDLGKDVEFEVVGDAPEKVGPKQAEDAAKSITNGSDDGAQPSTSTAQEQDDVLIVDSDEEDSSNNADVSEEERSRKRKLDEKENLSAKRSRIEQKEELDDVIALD
Chain of SUMO E1/E2 (P63279 whole entry): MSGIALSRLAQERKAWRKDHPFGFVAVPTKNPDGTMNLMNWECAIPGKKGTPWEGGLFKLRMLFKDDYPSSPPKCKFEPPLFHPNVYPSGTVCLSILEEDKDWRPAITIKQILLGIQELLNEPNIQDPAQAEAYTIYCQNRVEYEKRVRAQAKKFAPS
Chain of Beta-galactosidase (Q8VNN2 whole entry): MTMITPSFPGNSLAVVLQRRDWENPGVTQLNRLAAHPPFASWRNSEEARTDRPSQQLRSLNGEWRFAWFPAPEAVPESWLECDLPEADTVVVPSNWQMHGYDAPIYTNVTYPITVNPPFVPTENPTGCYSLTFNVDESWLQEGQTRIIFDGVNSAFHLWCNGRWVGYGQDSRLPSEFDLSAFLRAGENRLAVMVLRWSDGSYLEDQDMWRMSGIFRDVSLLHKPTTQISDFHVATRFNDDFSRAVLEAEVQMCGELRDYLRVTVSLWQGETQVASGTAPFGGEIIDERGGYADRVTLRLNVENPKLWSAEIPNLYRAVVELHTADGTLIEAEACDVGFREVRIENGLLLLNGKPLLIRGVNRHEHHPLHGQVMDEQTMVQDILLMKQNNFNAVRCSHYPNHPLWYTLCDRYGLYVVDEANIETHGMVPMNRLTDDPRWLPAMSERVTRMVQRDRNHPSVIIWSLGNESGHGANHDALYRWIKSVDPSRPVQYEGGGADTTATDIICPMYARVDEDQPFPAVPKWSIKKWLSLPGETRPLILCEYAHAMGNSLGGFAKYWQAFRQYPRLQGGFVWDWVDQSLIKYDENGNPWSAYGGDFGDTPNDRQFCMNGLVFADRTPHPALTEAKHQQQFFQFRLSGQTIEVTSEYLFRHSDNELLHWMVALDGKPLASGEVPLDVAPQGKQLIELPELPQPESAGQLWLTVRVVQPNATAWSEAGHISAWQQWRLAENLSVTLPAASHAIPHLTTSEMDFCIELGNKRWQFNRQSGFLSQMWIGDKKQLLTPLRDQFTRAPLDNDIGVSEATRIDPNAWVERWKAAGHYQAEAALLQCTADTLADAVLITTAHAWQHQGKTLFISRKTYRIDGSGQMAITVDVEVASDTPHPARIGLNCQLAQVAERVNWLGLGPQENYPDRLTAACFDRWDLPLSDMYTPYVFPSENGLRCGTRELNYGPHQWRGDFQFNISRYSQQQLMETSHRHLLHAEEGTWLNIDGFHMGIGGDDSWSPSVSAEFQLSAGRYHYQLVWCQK

N=C1/C(=C\c2ccc(O)c(O)c2)C(=O)N=C2SC(CC(=O)N3CCCCC3)=NN12
IC50 [1]: 1.92 µM (active) | AC50 [2]: 267 µM (active) | AC50 [3]: 2.44 µM (active) | EC50 [4]: 21.3 µM (active) | IC50 [5]: 6.98 µM (active) | EC50 [6]: 21.5 µM (active)

Cc1ccc(O)c(N=Cc2cccs2)c1
IC50 [7]: > 100 µM (inactive)

O=C(O)COc1ccc(C=NNC(=O)c2ccccc2Br)cc1
IC50 [8]: > 100 µM (inactive) | IC50 [9]: 66.3 µM (active) | IC50 [10]: > 100 µM (inactive) | IC50 [11]: > 100 µM (inactive) | IC50 [12]: > 100 µM (inactive) | IC50 [13]: > 100 µM (inactive)

CCC(C)(C)C1CCc2n[nH]c(C(=O)N/N=C(\C)c3ccco3)c2C1 (stereo not given)
IC50 [14]: > 100 µM (inactive) | EC50 [15]: 8.06 µM (active) | EC50 [16]: 33 µM (active) | EC50 [17]: 34.9 µM (active)

CCCCOc1ccc(CN2CCCCC2)cc1
IC50 [18]: > 79.4 µM (inactive) | EC50 [19]: 1.2 µM (active) | EC50 [20]: > 30 µM (not active) | IC50 [21]: > 79.4 µM (inactive) | IC50 [22]: > 79.4 µM (inactive)

COc1ccc(-c2csc(Cc3nc(O)cs3)n2)cc1
IC50 [23]: > 32 µM (inactive) | EC50 [24]: > 32 µM (inactive) | EC50 [25]: > 32 µM (inactive) | IC50 [26]: 7.92 µM (active) | EC50 [27]: > 31.5 µM (inactive) | IC50 [28]: > 32 µM

O=C(O)CNS(=O)(=O)c1ccc2c3c(cccc13)C(=O)N2
IC50 [5]: 8.43 µM (active) | IC50 [29]: 85.4 µM (active) | IC50 [30]: > 100 µM (inactive)

CN1C(=O)C(Cc2ccsc2)C(=O)N(C)C1=O
AC50 [31]: 8.7 µM (active) | AC50 [32]: 3.65 µM (active) | IC50 [33]: 33.6 µM (active) | IC50 [34]: 29.2 µM (active)
